According to PubChem BioAssay AID402 (SGCOxCompounds, 2006):

Target: Tyrosine-protein phosphatase non-receptor type 14 (Homo sapiens) (UniProt Q15678)
Assay: PTPN14 phosphatase inhibitors, biochemical, human, DiFMUP fluorescence (AID 402)
Conditions: recombinant PTPN14, DiFMUP fluorescence phosphatase assay; at 50 µM; active compounds read high

Tyrosine-protein phosphatase non-receptor type 14 (Homo sapiens), sequence (Q15678 whole entry, looked up): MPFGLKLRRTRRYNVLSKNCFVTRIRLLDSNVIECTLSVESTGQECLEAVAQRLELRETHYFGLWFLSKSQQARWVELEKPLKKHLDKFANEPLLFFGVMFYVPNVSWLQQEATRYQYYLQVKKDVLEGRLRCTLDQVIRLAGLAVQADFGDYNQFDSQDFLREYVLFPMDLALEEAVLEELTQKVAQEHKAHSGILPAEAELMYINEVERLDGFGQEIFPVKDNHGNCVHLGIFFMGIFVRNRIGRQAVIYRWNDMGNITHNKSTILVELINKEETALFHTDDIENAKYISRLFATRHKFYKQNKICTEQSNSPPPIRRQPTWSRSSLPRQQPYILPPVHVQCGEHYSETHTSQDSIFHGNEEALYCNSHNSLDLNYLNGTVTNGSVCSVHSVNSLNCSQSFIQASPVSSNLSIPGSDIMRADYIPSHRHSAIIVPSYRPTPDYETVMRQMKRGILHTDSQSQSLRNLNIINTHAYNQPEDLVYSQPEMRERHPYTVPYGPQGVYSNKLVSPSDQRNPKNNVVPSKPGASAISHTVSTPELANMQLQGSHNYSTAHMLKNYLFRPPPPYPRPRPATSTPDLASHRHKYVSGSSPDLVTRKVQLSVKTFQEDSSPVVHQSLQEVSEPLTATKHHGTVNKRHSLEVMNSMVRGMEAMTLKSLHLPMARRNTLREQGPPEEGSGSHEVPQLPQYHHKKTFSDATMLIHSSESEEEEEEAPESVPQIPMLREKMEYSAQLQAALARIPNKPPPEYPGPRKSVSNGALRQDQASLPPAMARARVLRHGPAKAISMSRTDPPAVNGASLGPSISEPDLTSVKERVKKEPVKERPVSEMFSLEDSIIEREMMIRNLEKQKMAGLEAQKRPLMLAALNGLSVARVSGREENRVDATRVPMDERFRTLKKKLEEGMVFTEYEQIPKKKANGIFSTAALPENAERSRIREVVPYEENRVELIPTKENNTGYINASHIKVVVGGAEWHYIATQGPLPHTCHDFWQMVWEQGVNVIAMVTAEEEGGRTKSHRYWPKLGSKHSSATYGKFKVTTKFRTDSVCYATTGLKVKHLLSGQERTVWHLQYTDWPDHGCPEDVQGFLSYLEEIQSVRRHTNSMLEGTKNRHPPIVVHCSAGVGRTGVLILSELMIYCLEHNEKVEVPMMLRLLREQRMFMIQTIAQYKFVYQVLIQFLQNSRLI

SMILES	inhibition [%]
CCn1nc(-c2ccccc2)nc2c(=O)n(C)c(=O)nc1-2	25.5
O=P(O)(O)Oc1cccc2ccccc12	26
O=C([O-])c1ccccn1.OO.OO.[K+].[K+].[O]=[V]	73
O=C(O)c1ccc([O-])cn1.OO.OO.[K+].[K+].[O]=[V]	70
Cn1nc(-c2ccccc2)nc2c(=O)n(C)c(=O)nc1-2	39.5
OO.OO.[K+].[O]=[V].c1cnc2c(c1)ccc1cccnc12	49
O=P(O)(O)OC(CO)CO	27
OO.OO.[K+].[O]=[V].c1ccc(-c2ccccn2)nc1	72
O=C(O)c1ccc(O)cn1.OO.[O]=[V]	62.5
CCn1nc(/C=C/c2ccccc2)nc2c(=O)n(C)c(=O)nc1-2	24
Cn1nc(/C=C/c2ccccc2)nc2c(=O)n(C)c(=O)nc1-2	37
Cn1c(=O)[nH]c2c(c1=O)[n+](=O)c(/C=C/c1ccccc1)nn2C	28
CCn1nc(/C=C/c2ccccc2)[n+](=O)c2c(=O)n(C)c(=O)[nH]c21	33
[NH-]CO.[NH-]CO.[NH-]CO.[NH-]CO.[O]=[V][O][V]=[O]	28.5
c1ccc([C@H]2CN3CCSC3=N2)cc1	27
CN(N=O)c1ccc(O)c(O)c1	68
CCn1nc(-c2ccc(Cl)cc2)nc2c(=O)n(C)c(=O)nc1-2	30.5
